# Molecular target: T1, mouse GHS-R (Mus musculus, UniProt Q99P50)
# T1 construct: the complete and contiguous open reading frame of mGHS-R; expressed in transfected cells; host or cells: 293-AEQ17 (aequorin-expressing reporter cell line), transiently transfected with pcDNA-3/mouse GHS-R
# Assay: aequorin bioluminescence assay of mouse GHS-R expressed in 293-AEQ17 cells
# Type: cell-based
# Conditions: expression of the complete and contiguous open reading frame of mGHS-R; aequorin biolumenescence assay
# Protocol: The mouse isoform of the previously identified GHS-R was cloned from two genomic DNA libraries for the generation of a GHS-R knock-out mouse.
# The cells were harvested, washed once in ECB medium and resuspended to 500,000 cells/ml. One hundred (100) […] of cell suspension (corresponding to 5×10^4 cells) was then injected into each well of a 96-well microtiter test plate, and the integrated light emission was recorded over 30 seconds, in 0.5 second units. Twenty (20) μl of lysis buffer (0.1% final Triton X-100 concentration) was then injected and the integrated light emission recorded over 10 seconds, in 0.5 second units. The “fractional response” values for each well were calculated by taking the ratio of the integrated response to the initial challenge to the total integrated luminescence including the Triton X-100 lysis response. Data were analyzed using GraphPad Prism software V.2.0 (GraphPad Software, San Diego, Calif.).
# T1 sequence (Q99P50 whole entry): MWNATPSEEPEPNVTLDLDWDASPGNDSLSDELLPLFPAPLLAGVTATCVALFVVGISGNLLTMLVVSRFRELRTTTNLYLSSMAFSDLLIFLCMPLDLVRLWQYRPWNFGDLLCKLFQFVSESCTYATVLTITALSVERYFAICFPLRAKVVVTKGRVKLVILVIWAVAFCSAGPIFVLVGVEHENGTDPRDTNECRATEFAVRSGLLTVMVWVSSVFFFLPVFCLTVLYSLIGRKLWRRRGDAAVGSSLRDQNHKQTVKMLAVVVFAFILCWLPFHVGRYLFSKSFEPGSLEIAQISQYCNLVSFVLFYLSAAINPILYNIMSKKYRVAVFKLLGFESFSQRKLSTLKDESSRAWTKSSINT
row,functional activation of mGHS-R,Compound
1,functionally activated,CC(C)(N)C(=O)N[C@H](COCc1ccccc1)C(=O)N1CCC2(CC1)CN(S(C)(=O)=O)c1ccccc12 [MK-0677]
2,functionally activated,GHRP-6

# Reference: patent US6682908B1, “Mouse growth hormone secretagogue receptor” (Merck & Co., Inc., priority 1998, dated 2004)
